Measured values as given in PubChem BioAssay (NCI).
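Compound exposure: 48 hours, 5 concentrations, 96-well plates. At the GI50, growth is halved. At the TGI there is no net growth.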

What was measured:
Experiment in all cases: inhibition of tumour cell growth, NCI panel, 48 h
SF-268 CNS = test system: SF-268 CNS
SNB-75 CNS = test system: SNB-75 CNS
HOP-92 NSCLC = test system: HOP-92 NSCLC
786-0 renal = test system: 786-0 renal
MOLT-4 leukemia = test system: MOLT-4 leukemia
SR leukemia = test system: SR leukemia
CAKI-1 renal = test system: CAKI-1 renal
OVCAR-3 ovarian = test system: OVCAR-3 ovarian
OVCAR-4 ovarian = test system: OVCAR-4 ovarian
A498 renal = test system: A498 renal
BT-549 breast = test system: BT-549 breast
RXF 393 renal = test system: RXF 393 renal
SK-OV-3 ovarian = test system: SK-OV-3 ovarian
NCI-H23 lung = test system: NCI-H23 lung
SW-620 colon = test system: SW-620 colon
OVCAR-5 ovarian = test system: OVCAR-5 ovarian
NCI-H522 lung = test system: NCI-H522 lung
NCI-H226 lung = test system: NCI-H226 lung
RPMI-8226 leukemia = test system: RPMI-8226 leukemia
UO-31 renal = test system: UO-31 renal
LOX IMVI melanoma = test system: LOX IMVI melanoma
UACC-257 melanoma = test system: UACC-257 melanoma
M14 melanoma = test system: M14 melanoma
TK-10 renal = test system: TK-10 renal
HCC-2998 colon = test system: HCC-2998 colon
SF-539 CNS = test system: SF-539 CNS
U251 CNS = test system: U251 CNS
HL-60(TB) leukemia = test system: HL-60(TB) leukemia
A549 NSCLC = test system: A549 NSCLC
ACHN renal = test system: ACHN renal
SN12C renal = test system: SN12C renal
HS 578T breast = test system: HS 578T breast
CCRF-CEM leukemia = test system: CCRF-CEM leukemia
PC-3 prostate = test system: PC-3 prostate
COLO 205 colon = test system: COLO 205 colon
T-47D breast = test system: T-47D breast
KM12 colon = test system: KM12 colon
SK-MEL-2 melanoma = test system: SK-MEL-2 melanoma
IGROV1 ovarian = test system: IGROV1 ovarian
SK-MEL-28 melanoma = test system: SK-MEL-28 melanoma
UACC-62 melanoma = test system: UACC-62 melanoma
NCI-H460 lung = test system: NCI-H460 lung
MCF7 breast = test system: MCF7 breast
HOP-62 NSCLC = test system: HOP-62 NSCLC
HCT-116 colon = test system: HCT-116 colon
MDA-MB-435 = test system: MDA-MB-435
OVCAR-8 ovarian = test system: OVCAR-8 ovarian
HCT-15 colon = test system: HCT-15 colon
MDA-MB-231 breast = test system: MDA-MB-231 breast
DU-145 prostate = test system: DU-145 prostate
SNB-19 CNS = test system: SNB-19 CNS
SF-295 CNS = test system: SF-295 CNS
NCI/ADR-RES ovarian = test system: NCI/ADR-RES ovarian
SK-MEL-5 melanoma = test system: SK-MEL-5 melanoma
K-562 leukemia = test system: K-562 leukemia
EKVX NSCLC = test system: EKVX NSCLC
HT29 colon = test system: HT29 colon

Question: Which results are given for `Oc1ccc(Cl)cc1-c1cc(-c2ccc(Cl)cc2)n[nH]1`?
Answer: GI50 (SF-268 CNS): 2.64 µM; TGI (SF-268 CNS): 15.1 µM; GI50 (SNB-75 CNS): 1.44 µM; TGI (SNB-75 CNS): 10.8 µM; GI50 (HOP-92 NSCLC): 1.18 µM; TGI (HOP-92 NSCLC): 4.6 µM; GI50 (786-0 renal): 2.51 µM; TGI (786-0 renal): 7.54 µM; GI50 (MOLT-4 leukemia): 2.05 µM; TGI (MOLT-4 leukemia): 19.5 µM; GI50 (SR leukemia): 0.577 µM; TGI (SR leukemia): 12.3 µM; GI50 (CAKI-1 renal): 1.87 µM; TGI (CAKI-1 renal): 11.3 µM; GI50 (OVCAR-3 ovarian): 1.53 µM; TGI (OVCAR-3 ovarian): 4.59 µM; GI50 (OVCAR-4 ovarian): 0.322 µM; TGI (OVCAR-4 ovarian): 5.7 µM; GI50 (A498 renal): 10.9 µM; TGI (A498 renal): 23.9 µM; GI50 (BT-549 breast): 2 µM; TGI (BT-549 breast): 9.45 µM; GI50 (RXF 393 renal): 6.01 µM; TGI (RXF 393 renal): 20.8 µM; GI50 (SK-OV-3 ovarian): 2.21 µM; TGI (SK-OV-3 ovarian): 13.8 µM; GI50 (NCI-H23 lung): 2.03 µM; TGI (NCI-H23 lung): 6.26 µM; GI50 (SW-620 colon): 2.54 µM; TGI (SW-620 colon): 11.1 µM; GI50 (OVCAR-5 ovarian): 9.55 µM; TGI (OVCAR-5 ovarian): 36.5 µM; GI50 (NCI-H522 lung): 3.26 µM; TGI (NCI-H522 lung): 12.9 µM; GI50 (NCI-H226 lung): 2.87 µM; TGI (NCI-H226 lung): 24.1 µM; GI50 (RPMI-8226 leukemia): 2.11 µM; TGI (RPMI-8226 leukemia): 7.39 µM; GI50 (UO-31 renal): 1.38 µM; TGI (UO-31 renal): 10.1 µM; GI50 (LOX IMVI melanoma): 2.02 µM; TGI (LOX IMVI melanoma): 5.65 µM; GI50 (UACC-257 melanoma): 9.92 µM; TGI (UACC-257 melanoma): 37.7 µM; GI50 (M14 melanoma): 2.72 µM; TGI (M14 melanoma): 11.6 µM; GI50 (TK-10 renal): 3.56 µM; TGI (TK-10 renal): 12.4 µM; GI50 (HCC-2998 colon): 1.86 µM; TGI (HCC-2998 colon): 11.5 µM; GI50 (SF-539 CNS): 3.56 µM; TGI (SF-539 CNS): 14.7 µM; GI50 (U251 CNS): 3.2 µM; TGI (U251 CNS): 11.3 µM; GI50 (HL-60(TB) leukemia): 1.81 µM; TGI (HL-60(TB) leukemia): 15.8 µM; GI50 (A549 NSCLC): 2.99 µM; TGI (A549 NSCLC): 13.9 µM; GI50 (ACHN renal): 2.45 µM; TGI (ACHN renal): 9.23 µM; GI50 (SN12C renal): 3.13 µM; TGI (SN12C renal): 15.5 µM; GI50 (HS 578T breast): 4.13 µM; TGI (HS 578T breast): 31.6 µM; GI50 (CCRF-CEM leukemia): 1.45 µM; TGI (CCRF-CEM leukemia): 14.5 µM; GI50 (PC-3 prostate): 1.78 µM; TGI (PC-3 prostate): 8.44 µM; GI50 (COLO 205 colon): 3.73 µM; TGI (COLO 205 colon): 15.3 µM; GI50 (T-47D breast): 1.45 µM; TGI (T-47D breast): 7.73 µM; GI50 (KM12 colon): 1.69 µM; TGI (KM12 colon): 6.21 µM; GI50 (SK-MEL-2 melanoma): 11.3 µM; TGI (SK-MEL-2 melanoma): 30.1 µM; GI50 (IGROV1 ovarian): 1.9 µM; TGI (IGROV1 ovarian): 15.9 µM; GI50 (SK-MEL-28 melanoma): 4.46 µM; TGI (SK-MEL-28 melanoma): 21.2 µM; GI50 (UACC-62 melanoma): 2.49 µM; TGI (UACC-62 melanoma): 10.4 µM; GI50 (NCI-H460 lung): 2.03 µM; TGI (NCI-H460 lung): 8.15 µM; GI50 (MCF7 breast): 0.551 µM; TGI (MCF7 breast): 5.25 µM; GI50 (HOP-62 NSCLC): 1.6 µM; TGI (HOP-62 NSCLC): 13.6 µM; GI50 (HCT-116 colon): 1.57 µM; TGI (HCT-116 colon): 2.99 µM; GI50 (MDA-MB-435): 3.14 µM; TGI (MDA-MB-435): 14.2 µM; GI50 (OVCAR-8 ovarian): 3.47 µM; TGI (OVCAR-8 ovarian): 14.1 µM; GI50 (HCT-15 colon): 0.349 µM; TGI (HCT-15 colon): 6.31 µM; GI50 (MDA-MB-231 breast): 0.624 µM; TGI (MDA-MB-231 breast): 6.79 µM; GI50 (DU-145 prostate): 3.02 µM; TGI (DU-145 prostate): 11 µM; GI50 (SNB-19 CNS): 2.59 µM; TGI (SNB-19 CNS): 12.1 µM; GI50 (SF-295 CNS): 3.01 µM; TGI (SF-295 CNS): 12.8 µM; GI50 (NCI/ADR-RES ovarian): 2.67 µM; TGI (NCI/ADR-RES ovarian): 7.92 µM; GI50 (SK-MEL-5 melanoma): 1.35 µM; TGI (SK-MEL-5 melanoma): 10.2 µM

Question: What does the source list for `Nc1nc(CCl)nc(N2CCOCC2)n1`?
Answer: TGI (SF-268 CNS): > 100 µM; TGI (SNB-75 CNS): 98.6 µM; TGI (HOP-92 NSCLC): 32.2 µM; TGI (786-0 renal): 29.2 µM; TGI (MOLT-4 leukemia): > 100 µM; TGI (SR leukemia): 61.8 µM; TGI (CAKI-1 renal): 30.5 µM; TGI (OVCAR-4 ovarian): 33.4 µM; TGI (A498 renal): > 100 µM; TGI (BT-549 breast): > 100 µM; TGI (RXF 393 renal): > 100 µM; TGI (SK-OV-3 ovarian): > 100 µM; TGI (NCI-H23 lung): 35.1 µM; TGI (SW-620 colon): 60.4 µM; TGI (OVCAR-5 ovarian): 47.3 µM; TGI (NCI-H522 lung): 11.1 µM; TGI (NCI-H226 lung): > 100 µM; TGI (RPMI-8226 leukemia): > 100 µM; TGI (UO-31 renal): 31.6 µM; TGI (UACC-257 melanoma): > 100 µM; TGI (M14 melanoma): > 100 µM; TGI (TK-10 renal): > 100 µM; TGI (HCC-2998 colon): 36.3 µM; TGI (SF-539 CNS): 51.9 µM; TGI (U251 CNS): 53.9 µM; TGI (K-562 leukemia): 54.4 µM; TGI (HL-60(TB) leukemia): 35.6 µM; TGI (A549 NSCLC): > 100 µM; TGI (ACHN renal): 32.5 µM; TGI (SN12C renal): > 100 µM; TGI (HS 578T breast): > 100 µM; TGI (CCRF-CEM leukemia): 45.7 µM; TGI (PC-3 prostate): > 100 µM; TGI (COLO 205 colon): 32.5 µM; TGI (T-47D breast): > 100 µM; TGI (KM12 colon): > 100 µM; TGI (SK-MEL-2 melanoma): > 100 µM; TGI (IGROV1 ovarian): 32.6 µM; TGI (SK-MEL-28 melanoma): 45.9 µM; TGI (UACC-62 melanoma): 31.4 µM; TGI (NCI-H460 lung): 41.1 µM; TGI (MCF7 breast): > 100 µM; TGI (HOP-62 NSCLC): 44.5 µM; TGI (HCT-116 colon): 66.1 µM; TGI (MDA-MB-435): > 100 µM; TGI (EKVX NSCLC): 38 µM; TGI (OVCAR-8 ovarian): > 100 µM; TGI (HCT-15 colon): 34.9 µM; TGI (MDA-MB-231 breast): 78.7 µM; TGI (DU-145 prostate): > 100 µM; TGI (HT29 colon): > 100 µM; TGI (SNB-19 CNS): > 100 µM; TGI (SF-295 CNS): > 100 µM; TGI (NCI/ADR-RES ovarian): 89.2 µM; TGI (SK-MEL-5 melanoma): 46.2 µM
